For data set [1], the system named is C2C12/Ras tumors. The data set is described as follows: Biodistribution in nude mice bearing subcutaneous C2C12/Ras tumors. To be noted: C2C12/Ras tumor mice, i.v. 740 kBq. In kind it is in vivo, mouse. As to the method: All animal studies were carried out in compliance with Federal and local institutional rules for the conduct of animal experimentation. Female athymic nude mice (nu/nu) were obtained from Charles River Laboratories (Boston, Mass.) at 7-8 weeks old and kept under sterile conditions. The nude mice were inoculated subcutaneously in the right shoulder with 2×10^6 cultured C2C12/Ras cells or 5×10^6 MDA-MB-435 cells. When the tumors reach 0.5-0.8 cm in diameter, the tumor bearing mice were subjected to in vivo biodistribution studies. For biodistribution studies, the mice bearing C2C12/Ras or MDA-MB-435 tumor xenografts (n=3 for each group) were injected with 740 KBq (20 μCi) of ^64Cu labeled tracer through the tail vein and sacrificed at different time points post injection (p.i.). Tumor and normal tissues of interest were removed and weighed, and their radioactivity was measured in a gamma-counter. The radioactivity uptake in the tumor and normal tissues was expressed as a percentage of the injected radioactive dose per gram of tissue (% ID/g).
We next examined the overall biodistribution of ^64Cu-Z-FK(DOTA)-AOMK using athymic nude mice carrying subcutaneously grafted C2C12/Ras and MDA-MB-435 tumors. […] Importantly, we observed rapid accumulation of radioactivity in the C2C12/Ras tumors expressing high levels of cysteine cathepsins (0.35±0.13% ID/g at 0.5 h p.i.). This activity remained in the tumors resulting in an uptake of 0.27±0.05% ID/g at 24 h p.i. For the MDA-MB-435 tumors with lower cysteine cathepsin expression, tumor uptake was approximately 2 fold lower at each time point relative to the C2C12/Ras tumors (P<0.05). […] The highest radioactivity was found in the liver due to high endogenous expression of various cysteine cathepsins. Moderate renal accumulation was also observed at all times in both tumor models.
Data are expressed as the percentage administered activity (injected dose) per gram of tissue (% ID/g) after intravenous injection of 740 kBq (20 μCi) of ^64Cu-Z-FK(DOTA)-AOMK at 0.5, 2, and 24 h pi (n=3). Significant lower tumor uptake and tumor/blood, tumor/muscle ratio in MDA-MB-435 breast cancer (P<0.05) were observed.

A short description of data set [2]: Octanol/water partition coefficient. It is filed as physicochemical. The note with it: octanol / PBS pH 7.4, repeated 3 times. As to the method:
Octanol/water partition coefficient. To determine the lipophilicity of ^64Cu-Z-FK(DOTA)-AOMK, approximately 370 kBq of ^64Cu-labeled complex in 500 μl of PBS (pH 7.4) was added to 500 μl of octanol in an eppendorf microcentrifuge tube. The resulting biphasic system was mixed vigorously for 10 min and left at room temperature for another 60 min. The two phases were then separated by centrifugation at 2000 g for 5 min (model 5415R Eppendorf microcentrifuge; Brinkman, Westbury, N.Y.). From each layer, an aliquot of 100 μl was removed and counted in a γ-counter (Packard Instruments). The partition coefficient (log P) was then calculated as a ratio of counts in the octanol fraction to the counts in the water fraction. The experiment was repeated 3 times. The lipophilicity of the probe affects its in vivo pharmacokinetics, and should be modest (˜0), with hydrophobic and hydrophilic groups present. For further details, see Lin et al., “Role of Pharmacokinetics and Metabolism in Drug Discovery and Development,” Pharmacological Reviews, Vol. 49, Issue 4, 403-449, December 1997.

The subject of data set [3] is Cathepsin Z, H, J, C. To be noted: Kato et al. Nat Chem Biol 2005; cited from earlier work.
The subject of data set [4] is cathepsin B. The note with it: Kato et al. Nat Chem Biol 2005; cited from earlier work.
Data set [5] relates to C2/C12 Ras tumors. The data set is described as follows: Tumor uptake of 64Cu-labeled cathepsin probes in tumor-bearing mice (FIG. 7). To be noted: 64Cu-labeled probe; for tumor uptake after 2 hrs / tumor uptake after 24 hours: IV. In kind it is in vivo, mouse. As for the experimental part:
Mice bearing tumors derived from […] C2/C12 Ras transformed cells were IV injected with ^64Cu-labeled probes. Images and total probe accumulation in tumors (arrows) is shown. For purposes of reproduction, the image is converted to black and white and reversed.
Essentially, two to four weeks prior to imaging MDA-MB 231 or C2C12/ras cells (a myoblast cell line wherein ras blocks differentiation) at 2×10^6 cell per spot were injected subcutaneous to the back of Balb-c nude mice.
Mice bearing tumors of similar size were injected intravenous via the tail vein with a DMSO/PBS solution of the compound to be tested. DMSO/PBS was locally injected directly into tumors in indicated mice, 15 minutes prior to probe injection. Fluorescent intensity as photons per second per centimeter square per steradian (p/s/cm2/sr) was recorded from living mice. Images were taken at various time points after probe injection using an IVIS 200 imaging system equipped with a Cy5.5 filter. Other protocols are known and may be adapted for administration and imaging in vivo using the present compounds. Another protocol for mouse studies is given in Joyce et al. “Cathepsin cysteine proteases are effectors of invasive growth and angiogenesis during multistage tumorigenesis,” Cancer Cell 5:443-452 (May 2004), at page 452.
In an initial attempt to make PET compatible cathepsin probes, a Cy5 tag was replaced with a group that could be used to bind ^64Cu. This was compound ^64Cu-DOTA-FFK-AOMK (GB172). […] Without wishing to be bound by any theory, it was reasoned that this poor accumulation in tumors was likely due to changes in the pharmacokinetic (PK) and cell permeability properties as the result of removal of the large, hydrophobic fluorophore molecule. While the improved uptake of the probe having both the macrocyclic chelator and the polyaromatic functionality (Cy5), it is thought that the combination of a bulky chelator and a substituted polyaromatic provided the probe molecule with provided a balance of mass, charge and hydrophobicity that gave the probe increased permeability through the outer lipid membranes of the cells. Following this logic, a version of GB-123 that retains the Cy5 fluorophore and also contains a site for attachment of the PET imaging tag was prepared. This was 64 Cu (GB170).

The test system of data set [6] is cathepsins B and L. The data set is described as follows: Labeling of intact tumor cells (SDS-PAGE, gel scan). In kind it is cell-based, mouse (C2C12/Ras), human (MDA-MB-435). The text has this:
FIG. 2 is a series of figures which, taken together, show the structure and function of representative in vivo probes. FIG. 2A is a schematic drawing of a chelator—conjugated probe, illustrating several component moieties. FIGS. 2B and 2C are gels showing expression and activity of enzyme targets of such probe, with a radionuclide label attached to the illustrated structure, showing the expression and activity of CB in a mouse myoblast cell line C2C12Ras and human breast cancer cell line MDA-MB-435. […] Cells were pretreated with JPM-OEt (50 μM) (+) or with control DMSO (0.1%) (−) for 2 h and labeled by addition of ^64Cu-Z-FK(DOTA)-AOMK (555 KBq, 15 μCi) to culture medium for 2 h. Cells were collected, lysed and analyzed after SDS-PAGE. The labeled proteases were visualized by scanning of the gel with a Typhoon 9410 imager.
Before applying the radiolabel probe in vivo we first tested the ability of the probe to label multiple tumor cell lines grown in vitro. We initially examined the labeling of the human breast cancer cell line MBA-MB-435 and a mouse myoblastoma cell line that had been transformed by overexpression of the ras oncogene (C2C12/Ras). Both of these cell lines were used for in vivo imaging studies with the NIRF-labeled cysteine cathepsin probes. To confirm earlier studies of these cells using the NIRF probes we labeled them with general Cy5-labeled probe GB123 (FIG. 1C). […] Labeling of the same cells with ^64Cu-Z-FK(DOTA)-AOMK confirmed that the DOTA produced a similar labeling pattern to that observed for the NIRF probe GB123.
C2C12/Ras and MDA-MB-435 cells (0.25 M each well) were seeded in a six-well plate one day before the study. Cells were pretreated with the general papain family protease inhibitor JPM-OEt (50 μM^28) or with control DMSO (0.1%) for 1 h and labeled by addition of ^64Cu-Z-FK(DOTA)-AOMK (555 KBq, 15 μCi) to culture medium for 2 h. Cells was then washed with PBS and lysed. Equal amounts of protein per lane were separated by 12% SDS-PAGE. […] The labeled bands were quantified with ImageJ 1.36b (public domain software from National Institute of Health).

The target in data set [7] is human cathepsin L (Homo sapiens, UniProt P07711). In words: Kinetic inhibition study, cathepsin L. It is filed as biochemical. To be noted: kinetic inhibition studies. An excerpt:
(§1) We attached the chelator and radionuclide to the probe at the P1 lysine side-chain. By attaching the radiolabel to a side chain, it is less likely to interfere with the binding of the AOMK warhead to the active protease. Previous work has shown that the majority of critical substrate interactions take place in the P2 position of the papain family proteases.
(§2) The kinetics of inhibition may be determined by progress curve method under pseudo-first order conditions with at least 10-fold molar excess of inhibitor. Recorded progress curves are analysed by non-linear regression according to the following equation (Bieth, J. G. Theoretical and practical aspects of proteinase inhibition kinetics. Methods Enzymol, 248, 59-84 (1995).) [P]=vz(1−e^−k·t)/k • where [P] is the product, vz is the velocity at time zero and k is the pseudo first order rate constant. Apparent rate constant (kapp) was determined from the slope of plot k versus [I]. […]
(§3) Activity of human cathepsin L is measured using the fluorogenic substrate Z-FRAMC37 (Bachem, USA) (Km=7.1 μM) and cathepsin B is assayed against the fluorogenic substrate Z-RR-AMC38 (Bachem, USA) (Km=114 μM). […] Increase of fluorescence (370 nm excitation, 460 nm emission) is continuously monitored for 30 minutes by Spectramax M5 spectrofluorimeter. (Molecular Devices, USA) and inhibition curves were recorded. […]

Data set [8] has as its target cathepsin B (Homo sapiens, UniProt P07858). In words: Kinetic inhibition study, cathepsin B. It is filed as biochemical. To be noted: kinetic inhibition studies.
Description: as §1, §2, §3

Entries after “also recorded” stand apart in the source; their conditions may differ.

Sequence of human cathepsin L (P07711 114-333): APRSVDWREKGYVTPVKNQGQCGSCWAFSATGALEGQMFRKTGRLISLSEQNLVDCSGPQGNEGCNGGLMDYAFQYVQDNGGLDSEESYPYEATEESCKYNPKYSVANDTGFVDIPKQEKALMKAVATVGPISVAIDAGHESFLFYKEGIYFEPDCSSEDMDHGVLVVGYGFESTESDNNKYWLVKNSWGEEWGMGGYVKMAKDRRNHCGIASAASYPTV

As for `Cc1cccc(C)c1C(=O)OCC(=O)[C@H](CCCCNC(=O)CN1CCN(CC(=O)O)CCN(CC(=O)O)CCN(CC(=O)O)CC1)NC(=O)[C@H](Cc1ccccc1)NC(=O)OCc1ccccc1` [Z-FK(DOTA)-AOMK], the “Biodistribution: Tumor” value in data set [1] (2 h p.i.) amounted to 0.30±0.03 % ID/g; in data set [1] (24 h p.i.), 0.27±0.05 % ID/g. In data set [2], the “log P (octanol-water partition coefficient)” value is listed as −0.10±0.04.

As to `Cc1cccc(C)c1C(=O)OCC(=O)[C@H](CCCNC(=N)N)NC(=O)[C@H](Cc1ccccc1)NC(=O)OCc1ccccc1` [Z-FR-AOMK], the “Activity against cathepsins Z, H, J, C” value in data set [3] is on record as “not cathepsins Z, H, J, H or C; also recorded: not Cathepsin Z, H, J, C or H”. The “Activity against cathepsin B” value in data set [4] is given as “active only against cathepsin B; also recorded: inhibits cathepsin B”.

Consider `CC[N+]1=C(/C=C/C=C/C=C2\N(CCCCCC(=O)NCCCC[C@H](NC(=O)[C@H](Cc3ccccc3)NC(=O)[C@H](Cc3ccccc3)NC(=O)CN3CCN(CC(=O)O)CCN(CC(=O)O)CCN(CC(=O)O)CC3)C(N)=O)c3ccc(S(=O)(=O)O)cc3C2(C)C)C(C)(C)c2cc(S(=O)(=O)O)ccc21` [GB 173, DOTA-FFK(Cy5)-AOMK-Amide], for which, in data set [5], the “tumor uptake after 2 hrs” value came out at 1.71 ± 0.08 and the “tumor uptake after 24 hours” value is 0.37 ± 0.13.

Turning to `CCN1C(=CC=CC=CC2=[N+](CCCCCC(=O)NCCCC[C@H](NC(=O)[C@H](Cc3ccccc3)NC(=O)OCc3ccccc3)C(=O)COC(=O)c3c(C)cccc3C)c3ccc(S(=O)(=O)O)cc3C2(C)C)C(C)(C)c2cc(S(=O)(=O)O)ccc21` [GB123], the “Cathepsin B and L activity of C2C12/Ras relative to MDA-MB-435 cells by probe labeling” value in data set [6] (cells labeled with Cy5-labeled probe) stood at 7.4 fold.

Consider JPM-OEt, for which, in data set [6] (cells pretreated with 50 μM inhibitor, then labeled with 64Cu-Z-FK(DOTA)-AOMK), the “Effect of inhibitor pretreatment on probe labeling of protease targets” value is recorded as “complete loss of labeling”.

`CC[N+]1=C(/C=C/C=C/C=C2\N(CCCCCC(=O)NCCCC[C@H](NC(=O)[C@H](Cc3ccccc3)NC(=O)[C@H](Cc3ccccc3)NC(=O)CN3CCN(CC(=O)O)CCN(CC(=O)O)CCN(CC(=O)O)CC3)C(=O)COC(=O)c3c(C)cccc3C)c3ccc(S(=O)(=O)O)cc3C2(C)C)C(C)(C)c2cc(S(=O)(=O)O)ccc21` [GB 170, DOTA-FFK(Cy5)-AOMK]: in data set [5], the “Tumor uptake in PET studies (in words)” value is “dramatically increased uptake in tumor tissues”, the “tumor uptake after 2 hrs” value is 3.17 ± 0.05 and the “tumor uptake after 24 hours” value came to 1.56 ± 0.23.

As to `Cc1cccc(C)c1C(=O)OCC(=O)[C@H](CCCCN)NC(=O)[C@H](Cc1ccccc1)NC(=O)[C@H](Cc1ccccc1)NC(=O)CN1CCN(CC(=O)O)CCN(CC(=O)O)CCN(CC(=O)O)CC1` [GB 172, DOTA-FFK-AOMK], in data set [5], the “Tumor uptake in PET studies (in words)” value is given as “overall probe uptake was very low”, the “tumor uptake after 2 hrs” value worked out at 0.41 ± 0.07 and the “tumor uptake after 24 hours” value is recorded as 0.32 ± 0.04.

`Cc1cccc(C)c1C(=O)OCC(=O)[C@H](CCCCN)NC(=O)[C@H](Cc1ccccc1)NC(=O)OCc1ccccc1` [NH2-GB11]: the “Loss of potency towards cathepsin L on modification of the P1 lysine” value in data set [7] is reported as 100 fold. Moreover, in data set [8], the “Loss of potency for cathepsin B on modification of the P1 lysine” value is on record as 30 fold.

Values taken from patent publication US8343458B2, “Probes for in vivo targeting of active cysteine proteases” (The Board of Trustees of the Leland Stanford Junior …, priority 2008, dated 2013).
